Test results published in patent publication US20060058346A1, “Novel enantiomers of etrahydroisoquinoline derivatives and theirpharmaceutically acceptable salts, their preparations and pharmaceutical compositions” (priority 2002, published 2006).
Read-outs that look alike come from different tables or passages of the source.

Tests used:
[1] = tested on: right auricle muscle; experiment: Heart rates (beats) of right auricle muscle excised from rats; parameters: species or system rat; conditions: for Heart Rates of Auricle Muscles: vehicle control:100%
Protocol: Immediately after Sprague-Dawley rats (female or male) were anaesthetized with pentobarbital sodium (50 mg/kg, i.m.), the thorax was opened to excise the heart. The heart was submerged in Krebs solution, and left auricle muscle and right auricle muscle were then isolated. The left auricle muscle was placed in an organ bath for recording of contractile force, and applied with electrical field stimulation (voltage 10% higher than threshold voltage, 1 Hz frequency, 5 ms duration). In the case of right auricle muscle, which contracts spontaneously, the number of continuous beats was recorded. In this experiment, to measure contractile fore of the two auricle muscles, the organ bath was warmed to 37° C., and as a physiological solution, Krebs solution (119.8 mM NaCl, 4.6 mM KCl, 2.5 mM CaCl2, 1.2 mM MgCl2, 25 mM NaHCO3, 1.2 mM KH2PO4, 10 mM glucose, 1 mM EDTA, pH 7.4) was used. The Krebs solution (pH 7.4) was continuously saturated with a gas mixture of 95% O2 and 5% CO2. The auricle muscle was under a tension of 1 g, and Krebs solution was exchanged with fresh solution at intervals of 20 minutes while equilibrium was maintained during a recording period of 60 minutes.

[2] = tested on: Rat Thoracic Aortas; experiment: Relaxation of rat thoracic aortas contracted by phenylephrine; conditions: for IC50: Rattus norvegicus, Endothelial cell, 0.1 μM phenylephrine contraction; for relaxation of contracted blood vessels: concentration-dependant manner
Protocol: Experimental group was divided into two groups, group containing endothelial cells of blood vessel and group not containing. Blood vessel of thoracic aortas was induced to contract by treatment with 0.1 μM of phenyleprine under tension of 1 g. Upon arriving at equilibrium, the enantiomers were added to an organ bath in a cumulative manner. Relaxation of thoracic aortas was recorded using a physiograph (Grass P7), calculating their response to the compounds with consideration of their added amount.

[3] = tested on: iNOS; experiment: Expression of iNOS stimulated by LPS in macrophage cell, Western blotting; format: cell-based; conditions: LPS 1 μg/ml; 10, 50, 100 μM; FIG. 1
Protocol: Macrophage cells (RAW 264.7 cell) were plated on 100 mm culture dishes at a density of 1-2×10^5 cells and incubated in DMEM medium containing 10% fetal calf serum (heat-inactivated), 100 U/ml penicillin, and […] streptomycin in a CO2 incubator. When being grown to complete confluence, macrophage cell was inoculated in serum-free DMEM medium, and further incubated for about 24 hours. Thereafter, macrophage cells were stimulated in the presence of LPS (1 μg/ml) and each of the compounds represented by the formulas 3 to 8 for about 12 hours. Total protein was isolated from the macrophage cells. The isolated protein was quantified by using Bradford method. 10 μg of isolated protein was loaded in SDS-PAGE electroporesis gel. The said gel was transferred to PVDF membrane. Anti-iNOS antibody was added to the said gel, thereafter disposed at 4° C. overnight. Thereafter, secondary antibody was added to the said gel, reacted for 1 hour at the room temperature and sensitized using ECL. Expression of protein was quantified, compared to the expressed Actin.

[4] = tested on: LPS-injected rat; experiment: Serum/plasma level of nitrate/nitrite (NOx) in LPS-injected rat; format: in vivo; conditions: 10 mg/kg compound; LPS 20 mg/kg
Protocol: The rats were divided into three groups; (1) LPS-injected group (LPS was administered to abdominal cavity in an amount of 20 mg/kg), (2) enantiomer-injected group (LPS+the compounds represented by formula 3 to 8 was administered to abdominal cavity) or (3) saline solution-injected group. After administration of LPS, the rats were anaesthetized with pentobarbital. The blood was collected from rats by using heart punching. The plasma level of nitrite was measured by using the nitrate reductase derived from Aspergillus species, where the nitrate was reduced by enzyme. Particularly, the plasma was diluted with distilled water in a ratio of 1:10. Analysis buffering solution (KH2PO4 50 Mm, NADPH 0.6 Mm, FAD 5 Mm and nitrate reductase 10 U/ml, Ph 5.5) was added to the said plasma. Thereafter, the reaction was accomplished at 37° C. for 30 min. The plasma level of nitrite was measured by using sodium nitrite as a standard, and Griess solution. Standard curve to nitrite was calculated from the result derived from incubation in analysis buffering solution.

[5] = group containing endothelial cells, read-out: IC50 (E+), concentration showing relaxation response of 50%
[6] = group not containing endothelial cells, read-out: IC50 (E−), concentration showing relaxation response of 50%

SMILES	Heart Rates of Auricle Muscles ([1]; 1 × 10^−4 M) [%]	Heart Rates of Auricle Muscles ([1]; 1 × 10^−5 M) [%]	Heart Rates of Auricle Muscles ([1]; 1 × 10^−6 M) [%]	Heart Rates of Auricle Muscles ([1]; 1 × 10^−7 M) [%]	Heart Rates of Auricle Muscles ([1]; 3 × 10^−5 M) [%]	Heart Rates of Auricle Muscles ([1]; 3 × 10^−6 M) [%]	Heart Rates of Auricle Muscles ([1]; 3 × 10^−7 M) [%]	IC50 [2, 5] [µM]	IC50 [2, 6] [µM]	relaxation of contracted blood vessels [2]	expression of iNOS protein [3]	plasma level of NOx [4] [µM]	effect on heart rates of auricle muscles [1]
Oc1ccc(C[C@@H]2NCCc3cc(O)c(O)cc32)cc1 [Formula 3, (S)-6,7-Dihydroxy-1-(p-hydroxyphenylmethyl)-1,2,3,4-tetrahydroisoquinoline]	250	180	145	130	200	150	140	0.917	4.3	induced relaxation	inhibited expression of iNOS protein strongly than R-enantiomer	29 ± 3	
Oc1ccc(C[C@H]2NCCc3cc(O)c(O)cc32)cc1 [Formula 4, (R)-6,7-Dihydroxy-1-(p-hydroxyphenylmethyl)-1,2,3,4-tetrahydroisoquinoline]	140	120	110	100	130	115	100	4.64	7.7	induced relaxation		85 ± 7	increased
Oc1cc2c(cc1O)[C@H](Cc1cccc3ccccc13)NCC2 [Formula 5]	190	180	175	150	187	178	162.5	0.714	5.5	induced relaxation	inhibited expression of iNOS protein strongly than R-enantiomer		strongly stimulated
Oc1cc2c(cc1O)[C@@H](Cc1cccc3ccccc13)NCC2 [Formula 6, (R)-6,7-Dihydroxy-1-(α-naphthylmethyl)-1,2,3,4-tetrahydroisoquinoline]	71	85	93.75	100	75	94	93.75	1.28	8.81	induced relaxation			no effect
Oc1cc2c(cc1O)[C@H](Cc1ccc3ccccc3c1)NCC2 [Formula 7, (S)-6,7-Dihydroxy-1-(β-naphthylmethyl)-1,2,3,4-tetrahydroisoquinoline]	180	175	165	150	180	170	160	0.757	3.14	induced relaxation	inhibited expression of iNOS protein strongly than R-enantiomer		strongly stimulated
Oc1cc2c(cc1O)[C@@H](Cc1ccc3ccccc3c1)NCC2 [Formula 8, (R)-6,7-Dihydroxy-1-(β-naphthylmethyl)-1,2,3,4-tetrahydroisoquinoline]	105	105	100	100	105	100	100	1.95	7.54	induced relaxation			no effect
